Assay results from patent publication US9889146B2, “Benzoxaborole compounds and uses thereof” (priority 2012, dated 2018).
Converted amounts (≈) assume the structure as drawn. Like-named read-outs stand apart in the source and are kept apart here.

Experiments:
Type in all cases: cell-based
[1] = test system: Citrobacter freundii (AmpC); test: microbe, parasite or virus in culture; settings: Citrobacter freundii
[2] = test system: Proteus vulgaris (WT); test: microbe, parasite or virus in culture
[3] = test system: Enterobacter cloacae (AmpC); test: microbe, parasite or virus in culture; settings: Enterobacter cloacae
[4] = test system: Klebsiella spp. (ESBL); test: microbe, parasite or virus in culture; settings: Klebsiella
[5] = test system: Providencia spp.(all); test: microbe, parasite or virus in culture
[6] = test system: Enterobacter cloacae (WT); test: microbe, parasite or virus in culture; settings: 202 isolates, read-out: MIC90
[7] = test system: P. aeruginosa; test: In vitro activity against P. aeruginosa clinical isolates
Protocol: GSK2251052 was tested for activity against P. aeruginosa, and its activity was compared to other antibiotics of known activity. The results are shown below in Tables 2a and 2b. Of 2,008 clinical isolates tested (from 2009-2010 subjects, of which 40% were from North America) greater than 90% were susceptible to GSK2251052 based on a potential susceptible breakpoint of ≦4 μg/mL.

[8] = test system: Enterobacter aerogenes (WT); test: microbe, parasite or virus in culture; settings: for MIC90: Klebsiella aerogenes
[9] = test system: Proteus mirabilis (WT); test: microbe, parasite or virus in culture
[10] = test system: Morganella morganii (AmpC); test: microbe, parasite or virus in culture; settings: Morganella morganii
[11] = test system: Enterobacteriaceae; test: organism not typed
[12] = test system: Klebsiella spp. (WT); test: microbe, parasite or virus in culture
[13] = test system: Enterobacter aerogenes (AmpC); test: microbe, parasite or virus in culture; settings: Klebsiella aerogenes
[14] = test system: E. coli (ESBL); test: microbe, parasite or virus in culture; settings: Escherichia coli
[15] = test system: E. coli (WT); test: microbe, parasite or virus in culture; settings: for MIC90: Escherichia coli
[16] = test system: S. marcescens (AmpC); test: microbe, parasite or virus in culture; settings: Serratia marcescens
[17] = test system: Klebsiella spp. (KPC); test: microbe, parasite or virus in culture; settings: Klebsiella
[18] = test system: E. coli ATCC 25922; test: Spontaneous frequency of resistance; settings: 24 h
Protocol: (§1) Spontaneous Resistance Frequency was determined in vitro for GSK2251052 and the resistance mutants in E. coli ATCC 25922, K. pneumoniae ATCC 13883, and P. aeruginosa ATCC 27853 strains were characterized. GSK2251052 was prepared as described in U.S. Pat. No. 7,816,344 (the entire contents of which are hereby incorporated by reference herein). LB broth, Mueller Hinton II broth (adjusted), and Difco noble agar were obtained from Becton Dickinson (Cockeysville, Md., USA). M9 minimal broth containing 1×M9 salt, 0.5 μg/ML thiamine, 1 mM MgSO4, 0.1 mM CaCl2, 2% glucose, was obtained from Teknova (Hollister, Calif., USA). Antibacterial agents ciprofloxacin, ceftazidime, chloramphenicol, gentamycin, kanamycin, polymixin B, tobramycin and trimethoprim, and amino acids were obtained from Sigma Chemicals (St. Louis, Mo., USA). Strains were obtained from ATCC (Manassas, Va., USA).
(§2) Selection of resistance to GSK2251052 was attempted by spreading various amounts of bacteria onto MHBII noble agar plates containing 4×MIC (minimum inhibitory concentration) or 10×MIC of GSK2251052. Colonies were counted after 24 hours and 48 hours incubation at 37° C. The resistance of these colonies was confirmed by their ability to grow on plates containing GSK2251052 at either 4× or 10×MIC. Frequency of resistance was determined by dividing the number of resistant mutants by the total number of cells plated as determined by plating dilutions of the overnight culture on LB plates.

[19] = test system: P. aeruginosa ATCC 27853; test: Spontaneous frequency of resistance; settings: 24 h
Protocol: as §1, §2

[20] = test system: K. pneumoniae ATCC 13883; test: Spontaneous frequency of resistance; settings: 24 h
Protocol: as §1, §2

[21] = test system: E. coli ATCC 25922, K. pneumoniae ATCC 13883 and P. aeruginosa ATCC 27853; test: MIC, three strains and their mutants summarised; settings: MIC in E. coli, P. aeruginosa and K. pneumoniae mutants versus wild-type
Protocol: as §1
(§3) Susceptibility tests were performed following the recommendations for aerobic bacteria (M7-A7) from the Clinical and Laboratories Standards Institute (CLSI).
(§4) Laboratory generated mutants resistant to GSK2251052 contain mutations in the editing domain of LeuRS. Six to ten GSK2251052 resistant colonies of E. coli ATCC 25922, K. pneumoniae ATCC 13883 and P. aeruginosa ATCC 27853 were selected for further analysis and their MICs to GSK2251052 were determined (Table 4-7).
GSK2251052 resistant mutants were not cross-resistant to commercial antibiotics.

[22] = test system: K. pneumoniae ATCC 13883 wild type and mutants; test: MIC, wild type and GSK2251052 resistant mutants; settings: Klebsiella pneumoniae
Protocol: as §1, §3, §4

[23] = test system: E. coli ATCC 25922 wild type and mutants; test: MIC, wild type and GSK2251052 resistant mutants; settings: Escherichia coli
Protocol: as §1, §3, §4

[24] = test system: P. aeruginosa ATCC 27853 wild type and mutants; test: MIC, wild type and GSK2251052 resistant mutants; settings: Pseudomonas aeruginosa
Protocol: as §1, §3, §4

[25] = P. aeruginosa, 2,008 clinical isolates, GSK2251052 based on potential susceptible breakpoint of ≦4 μg/mL

With C[C@@H](O)[C@H]1C(=O)N2C(C(=O)O)=C(SCCN=CN)C[C@H]12 [Imipenem] the MIC90 [1] was 1 µg/mL (≈ 3.34 µM), the “susceptibility category of MIC90” value [2] was “***4” and the MIC90 ([2]; Proteus vulgaris) was 4 µg/mL (≈ 13.4 µM). The MIC90 [3] was 1 µg/mL (≈ 3.34 µM), the MIC90 [4] was 0.5 µg/mL (≈ 1.67 µM) and the “susceptibility category of MIC90” value [5] was “**2”. For the same compound, the MIC90 ([5]; Providencia) was 2 µg/mL (≈ 6.68 µM), the MIC90 [6] was 1 µg/mL (≈ 3.34 µM) and the “% susceptible” value [7] was 72.9%. For the same compound, the “susceptibility category of MIC90” value [8] was “**2”, the MIC90 [8] was 2 µg/mL (≈ 6.68 µM) and the “susceptibility category of MIC90” value [9] was “***4”. It also gave an MIC90 ([9]; Proteus mirabilis) of 4 µg/mL (≈ 13.4 µM), an MIC90 [10] of 4 µg/mL (≈ 13.4 µM) and an MIC90 [11] of 2 µg/mL (≈ 6.68 µM). The “susceptibility category of MIC90” value [11] was “**2”, the “susceptibility category of MIC90” value [12] was “*0.25” and the MIC90 ([12]; Klebsiella) was 0.25 µg/mL (≈ 0.835 µM). For the same compound, the MIC90 [13] was 2 µg/mL (≈ 6.68 µM), the MIC90 [14] was 0.5 µg/mL (≈ 1.67 µM) and the “susceptibility category of MIC90” value [15] was “*0.25”. The MIC90 [15] was 0.25 µg/mL (≈ 0.835 µM), the MIC90 [16] was 2 µg/mL (≈ 6.68 µM) and the MIC90 [17] was 64 µg/mL (≈ 214 µM).
C[C@H]1COc2c(N3CCN(C)CC3)c(F)cc3c(=O)c(C(=O)O)cn1c23 [Levofloxacin] was tested, and the MIC90 [1] was 8 µg/mL (≈ 22.1 µM), the MIC90 ([2]; Proteus vulgaris (WT), 41 isolates, read-out: MIC90) was at most 5 µg/mL and the MIC90 [3] was 16 µg/mL (≈ 44.3 µM). The MIC90 [4] was over 16 µg/mL, the MIC90 ([5]; Providencia spp.(all), 68 isolates, read-out: MIC90) was over 16 µg/mL and the MIC90 [6] was at most 0.5 µg/mL. The “% susceptible” value [7, 25] was 63.7%, the MIC90 ([8]; Enterobacter aerogenes (WT), 199 isolates, read-out: MIC90) was at most 0.5 µg/mL and the MIC90 ([9]; Proteus mirabilis (WT), 235 isolates, read-out: MIC90) was 8 µg/mL (≈ 22.1 µM). The “Frequency of Resistance” value ([18]; 4 X MIC) was 2 × 10^−8, the “Frequency of Resistance” value ([18]; 10 X MIC) was <5 × 10^−9 and the “Frequency of Resistance” value ([19]; 4 X MIC) was 1 × 10^−7. The “Frequency of Resistance” value ([19]; 10 X MIC) was <1 × 10^−9, the “Frequency of Resistance” value ([20]; 4 X MIC) was 2 × 10^−7 and the “Frequency of Resistance” value ([20]; 10 X MIC) was <3 × 10^−9. The MIC90 [10] was over 16 µg/mL, the MIC90 ([11]; Enterobacteriaceae, 2029 isolates, read-out: MIC90) was 16 µg/mL (≈ 44.3 µM) and the MIC90 ([12]; Klebsiella spp. (WT), 159 isolates, read-out: MIC90) was 4 µg/mL (≈ 11.1 µM). For the same compound, the MIC90 [13] was 16 µg/mL (≈ 44.3 µM), the MIC90 [14] was over 16 µg/mL and the MIC90 ([15]; E. coli (WT), 214 isolates, read-out: MIC90) was 16 µg/mL (≈ 44.3 µM). The MIC90 [16] was 4 µg/mL (≈ 11.1 µM) and the MIC90 [17] was over 16 µg/mL.
C[C@@H](O)[C@H]1C(=O)N2C(C(=O)O)=C(S[C@@H]3CN[C@H](C(=O)N(C)C)C3)[C@H](C)[C@H]12 [Meropenem] was tested, and the “% susceptible” value [7, 25] was 79.3%, the “Frequency of Resistance” value ([18]; 4 X MIC) was <4 × 10^−9 and the “Frequency of Resistance” value ([18]; 10 X MIC) was <4 × 10^−9. For the same compound, the “Frequency of Resistance” value ([19]; 4 X MIC) was 7 × 10^−7, the “Frequency of Resistance” value ([19]; 10 X MIC) was <1 × 10^−9 and the “Frequency of Resistance” value ([20]; 4 X MIC) was <3 × 10^−9. For the same compound, the “Frequency of Resistance” value ([20]; 10 X MIC) was <3 × 10^−9.
COc1cc(Cc2cnc(N)nc2N)cc(OC)c1OC [Trimethoprim] was tested, and the “cross-resistance of GSK2251052 resistant mutants” value [21] was “did not have any significant difference in MIC values than wild-type”, the MIC ([22]; ATCC13883, K wt., read-out: MICs) was 1 µg/mL (≈ 3.44 µM) and the MIC ([22]; ATCC13883, read-out: MICs, mutant K 104) was 1 µg/mL (≈ 3.44 µM). It also gave an MIC ([22]; ATCC13883, read-out: MICs, mutant K 105) of 1 µg/mL (≈ 3.44 µM), an MIC ([22]; ATCC13883, read-out: MICs, mutant K 107) of 1 µg/mL (≈ 3.44 µM) and an MIC ([22]; ATCC13883, read-out: MICs, mutant K 108) of 1 µg/mL (≈ 3.44 µM). It also gave an MIC ([22]; ATCC13883, read-out: MICs, mutant K 110) of 1 µg/mL (≈ 3.44 µM), an MIC ([23]; ATCC25922, E wt, read-out: MICs) of 0.5 µg/mL (≈ 1.72 µM) and an MIC ([23]; ATCC25922, read-out: MICs, mutant E 101) of 1 µg/mL (≈ 3.44 µM). The MIC ([23]; ATCC25922, read-out: MICs, mutant E 102) was 0.5 µg/mL (≈ 1.72 µM), the MIC ([23]; ATCC25922, read-out: MICs, mutant E 107) was 1 µg/mL (≈ 3.44 µM) and the MIC ([24]; ATCC27853, P wt., read-out: MICs) was over 64 µg/mL. The MIC ([24]; ATCC27853, read-out: MICs, mutant P 101) was over 64 µg/mL, the MIC ([24]; ATCC27853, read-out: MICs, mutant P106) was over 64 µg/mL and the MIC ([24]; ATCC27853, read-out: MICs, mutant P108) was over 64 µg/mL.
